Earlier results as cited in patent US11464736B2, “Thermally gelling drug formulations” (UNM Rainforest Innovations, priority 2019, dated 2022).

Assays:
[1] = target: CYP3A4 metabolizing enzyme (Homo sapiens, UniProt P08684)
[2] = not given; remark: listed apart in the source

Sequence of CYP3A4 metabolizing enzyme (P08684 whole entry): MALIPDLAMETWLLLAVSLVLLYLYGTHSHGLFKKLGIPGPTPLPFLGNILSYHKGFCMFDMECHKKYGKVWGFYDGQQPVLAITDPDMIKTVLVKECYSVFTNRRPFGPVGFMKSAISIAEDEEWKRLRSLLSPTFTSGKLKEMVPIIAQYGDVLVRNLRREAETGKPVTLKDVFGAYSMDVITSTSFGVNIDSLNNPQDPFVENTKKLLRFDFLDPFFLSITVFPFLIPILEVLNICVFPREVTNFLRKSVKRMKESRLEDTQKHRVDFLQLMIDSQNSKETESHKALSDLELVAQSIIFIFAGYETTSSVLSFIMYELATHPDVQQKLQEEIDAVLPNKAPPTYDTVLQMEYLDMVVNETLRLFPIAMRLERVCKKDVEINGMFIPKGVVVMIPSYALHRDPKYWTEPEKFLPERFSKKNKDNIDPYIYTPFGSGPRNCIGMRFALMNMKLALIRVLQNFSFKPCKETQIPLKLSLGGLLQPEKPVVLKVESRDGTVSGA

CC(=O)C(C)n1ncn(-c2ccc(N3CCN(c4ccc(OC[C@H]5CO[C@](Cn6cncn6)(c6ccc(Cl)cc6Cl)O5)cc4)CC3)cc2)c1=O (mixture of isomers) [keto-itraconazole]
inhibition of CYP3A4 [1]: competitive inhibitors

CCC(C)n1ncn(-c2ccc(N3CCN(c4ccc(OCC5COC(Cn6cncn6)(c6ccc(Cl)cc6Cl)O5)cc4)CC3)cc2)c1=O (centres unmarked) [ITZ, Itraconazole]
log P: 5.7-6.2 | increase of oral bioavailability when taken with food [2]: 33-37%

O=c1[nH]ncn1-c1ccc(N2CCN(c3ccc(OCC4COC(Cn5cncn5)(c5ccc(Cl)cc5Cl)O4)cc3)CC2)cc1 (centres unmarked) [N-desalkyl-itraconazole]
inhibition of CYP3A4 [1]: competitive inhibitors

hydroxy-itraconazole
inhibition of CYP3A4 [1]: competitive inhibitors
